Test results taken from US8658206B2, “Compositions comprising strontium and vitamin D and uses thereof” (Mokwalo SA, priority 2004, dated 2014).

Key:
[1] = relative to cholecalciferol itself; cited from earlier work
[2] = Determination of solubility velocity by ICP-MS in 0.1 M hydrochloride solution; details: 0.1 M HCl, 37° C., 84Sr signal by ICP-MS
Protocol: Determination of Solubility Velocity by Inductively Coupled Plasma-Mass Spectrometry (ICP-MS)
The solubility is measures as strontium signals over time using ICP-MS. Using this technique it is possible to follow multiple isotopes of the element, here, ^84Sr, ^86Sr, ^87Sr and ^88Sr.
A hydrochloride solution (0.1 M) was added to the sample and the sample then immediately enters, by means of a peristaltic pump, the atomizer of the ICP-MS apparatus. The pump speed was 4.4 ml/min.
The hydrochloride concentration of 0.1 M equals the concentration of HCl in the stomach. The temperature of the HCl solution was 37° C.
The solubility velocity of the compound is obtained by analysing the slopes of the front curves. The first curve represents the experiment and the second curve the apparatus, thus the difference between the slopes of the two curves are used to calculate the solubility velocity by division with the top value.

Row | SMILES | times more effective in terms of bioavailability than cholecalciferol [1] | solubility velocity in hydrochloride [2]
1 | C=C1/C(=C\C=C2/CCC[C@]3(C)[C@@H]([C@H](C)CCCC(C)(C)O)CC[C@@H]23)C[C@@H](O)C[C@@H]1O [1,25 dihydroxycholecalciferol] | ten | 
2 | C=C1CC[C@H](O)C/C1=C/C=C1\CCC[C@]2(C)[C@@H]([C@H](C)CCCC(C)(C)O)CC[C@@H]12 [25-hydroxycholecalciferol] | five | 
3 | [Cl-].[Cl-].[Sr+2] [strontium chloride] |  | very high
